Experimental data taken from PMC2974656, “Selective killing of human immunodeficiency virus infected cells by non-nucleoside reverse transcriptase inhibitor-induced activation of HIV protease” (Retrovirology, 2010).

Tests used:
293T cells = assay: Microscopically detectable impairment of cell growth of transfected 293T cells; format: cell-based; conditions: high NNRTI concentrations (5 μM and above)
Method: At 44 h post transfection, cell lysates were analyzed for β-Gal activity.

MT4-LTR-EGFP-IIIB cells = format: cell-based; conditions: 1 μM, 6 days, trypan blue
Excerpt: (§1) In MT4-LTR-EGFP-IIIB cells, HIV expression could additionally be detected through long terminal repeat (LTR) driven expression of the gfp marker gene. As a control we used uninfected MT-4 cells or MT4-CMV-EGFP cells, constitutively expressing EGFP from a CMV promoter, respectively.
(§2) Cell lysates were harvested and analyzed by immunoblot using antiserum raised against HIV-1 CA. Positions of Gag and Gag-Pol processing products are marked at the right, molecular mass standards are indicated to the left (in kDa). […] Live cells were counted after trypan blue staining. Data represent mean values and standard deviations from three parallel cultures.

HIV-1AGFP infected PBMC = assay: Killing of HIV-1 infected PBMC, proportion of GFP expressing cells by flow cytometry; format: cell-based, human; conditions: 1 μM NNRTI, added day 2 post infection with AMD-3100, 5 days
Method: PBMC isolated from healthy blood donors were activated and infected with a replication competent HIV-1 derivative which carries a gfp gene in the nef locus [49]. The co-receptor antagonist AMD-3100 was added at day 2 post infection to prevent further viral spread.

[1] = system: MT4-LTR-EGFP parental cells; conditions: 1 μM, 6 days, trypan blue
Excerpt: as §1, §2

[2] = system: Gag processing in MT-4-IIIB cells; assay: Immunoblot of Gag processing in chronically infected MT-4 cells; format: cell-based, HIV-1; conditions: 1 μM, day 2 post addition
[3] = system: HXB2D-EGFP infected CD4 positive cells isolated from PBMC; assay: Killing of HIV-1 infected CD4 positive primary T-cells, flow cytometry; format: cell-based, human; conditions: 1 μM NNRTI + 1 μM AZT, 3 days
Method: To validate our results obtained for the persistently infected cell line in a more relevant cell system we performed additional infection experiments using human peripheral blood mononuclear cells (PBMC). […]. PBMC isolated from healthy blood donors were activated and infected with a replication competent HIV-1 derivative which carries a gfp gene in the nef locus. The co-receptor antagonist AMD-3100 was added at day 2 post infection to prevent further viral spread. This was done to distinguish the proposed killing of infected cells from the inhibitory effect of NNRTIs and PIs on virus replication. […]. […] Similar results were obtained upon infection of CD4-positive primary T-cells with an EGFP-expressing virus (Figure 4B).
Figure 4 NNRTI induced selective killing of HIV-1 infected primary human cells. (A) PBMC prepared from buffy coats of healthy blood donors were infected with HIV-1AGFP. At day 2 post infection, 100 ng/ml AMD-3100 was added to all samples to prevent further infection. […] After further incubation for 5 days, cells were harvested and analyzed for the proportion of infected GFP expressing cells by flow cytometry. […] P-values were calculated using a two-tailed unpaired t-test (GraphPad Prism). Values were normalized to the respective solvent control. (B) CD4 positive cells isolated from PBMC were infected with HXB2D-EGFP. […] After further incubation for 3 days, cells were harvested and analyzed for the proportion of infected cells by flow cytometry. […] Asterisks: non-infected controls.
Peripheral blood mononuclear cells (PBMC) were purified from buffy coats of HIV-negative blood donors, grown in supplemented RPMI 1640 and stimulated by the addition of 10 ng/ml IL-2 (Biomol) and 2 μg/ml PHA (Sigma). PBMC pooled from two donors each were used for infection. […] For infection of PBMC, the HIV-1 derivatives HIV-1-AGFP [49] carrying the gfp gene fused to the codon for amino acid 16 of Nef in pNL4-3, or HXB2D-EGFP [60], which carries an egfp gene in the place of the viral nef open reading frame, were used as indicated. […]

[4] = system: intracellular Gag processing by HIV PR; format: cell-based, HIV-1; conditions: 293T cells, 44 h post transfection
Method: In previous studies, high concentrations of NNRTI (5 μM) were required to observe NNRTI mediated activation of intracellular HIV PR activity. […]. Towards this end, we developed a biochemical assay for gel independent quantitation of intracellular Gag processing by HIV PR in the context of a virus producing cell. We had previously shown that additional protein domains, consisting of small epitope tags or even the 27 kDa green fluorescent protein (EGFP), can be inserted between the MA and CA domains of the Gag and Gag-Pol polyproteins without affecting polyprotein production or processing by HIV PR [36]. Based on this, we designed a HIV reporter construct which contained a small N-terminal fragment ('alpha peptide') of Escherichia coli beta-galactosidase (β-Gal), flanked by two HIV PR recognition sites, between the MA and CA coding sequences of Gag (Figure 1A). […] This so called alpha complementation principle can be exploited for use in mammalian cells and has been employed for the establishment of various cell based biochemical assay systems. We reasoned that embedding of the small alpha peptide within the multi-domain polyproteins Gag or Gag-Pol, respectively, should impair its productive association with the omega subunit, while proteolytic release of the alpha peptide from the polyprotein by PR would allow the formation of enzymatically active β-Gal. This should allow us to monitor intracellular Gag and Gag-Pol processing through increased β-Gal activity.
Reconstituted β-Gal activity in cell lysates was measured by cleavage of the chromogenic substrate CPRG [42] as described in Methods.
The activity of β-Gal in cell lysates from transfected 293T cells was measured by enzymatic cleavage of the chromogenic β-Gal substrate chlorphenolred-β-D-galactopyranoside (CPRG, Roche; [42]). At 44 h post transfection, cells were briefly rinsed with PBS and suspended in reporter gene assay lysis buffer (Roche, 600 μl per 6-well dish) supplemented with a protease inhibitor mix (Roche). Cell suspensions were incubated for 10 min at room temperature and cell debris was subsequently removed by brief centrifugation. Five μl of supernatant were diluted in 96-well plates with 95 μl CPRG reaction buffer (50 mM potassium phosphate, pH 7.5, 1 mM MgCl2) and pre-warmed for 5 min to 37°C. 100 μl of pre-warmed reaction mix (100 μM CPRG in CPRG reaction buffer supplemented with protease inhibitor cocktail and 40 μM β-mercaptoethanol) were added and β-Gal mediated cleavage of CPRG was monitored by recording absorption at 592 nm every 2 min for 20 min at 37°C using a TECAN Safire multi-well reader. OD592 values were plotted over time and relative reaction rates (OD592/min) were determined from the initial linear velocities.

[5] = system: MT4-CMV-EGFP control cells; assay: Cytotoxicity on uninfected control cells, EGFP fluorescence per well; format: cell-based
Method: The cytotoxicity of inhibitors was determined in parallel on MT4-CMV-EGFP control cells and on MT4-LTR-EGFP-IIIB virus producing cells, respectively.

Q: With `NS(=O)(=O)c1ccc(NC(=O)CSc2nnc(Br)n2-c2ccc(C3CC3)c3ccccc23)c(Cl)c1` [VRX-480773] as the compound, how does the “Impairment of cell growth with decrease in β-Gal activity indicative of cytotoxic effects” value (293T cells) read?
A: most pronounced

Q: And the “Live cell numbers, HIV infected MT4-LTR-EGFP-IIIB cells” value (MT4-LTR-EGFP-IIIB cells)?
A: significant decrease

Q: What about the “Infected primary cells (PBMC) as compared with the control” value (HIV-1AGFP infected PBMC) of the same compound?
A: significant reduction

Q: What about the “Number of uninfected control cells” value [1] of the same compound?
A: remained constant

Q: What about the “NNRTI mediated enhancement of Gag processing in virus producing cells” value [2] of the same compound?
A: decreased ratio of Gag to intermediate and fully mature processing products

Q: What about the “Cytotoxicity on infected CD4-positive primary T-cells” value [3] of the same compound?
A: PR dependent cytotoxicity

Q: And the “Concentration showing strong β-Gal activity enhancement” value [4]?
A: ~ 250 nM

Q: What about the CC50 [5] of the same compound?
A: 5.82 ± 1.44 µM

Q: And the “CC50 on uninfected control cells relative to virus producing cells” value [5]?
A: ~ 10 fold
